The results in this text go back to ChEMBL document CHEMBL1201862, “PubChem BioAssay data set” (2004).

A short description of assay [1]: inhibitors of firefly luciferase expression or activity, dose response, H4 neuroglioma cells, luminescence (AID 1990). The assay is classed as functional, cell-based.
The test system of assay [2] is BJ. Briefly: cytotoxicity toward BJ-TERT fibroblasts, dose response, cell-based, RAS-independent, luminescence (AID 1933). The assay is classed as functional. To be noted: Homo sapiens.
The nature of assay [3]: Luminescence Cell-Based Dose Response HTS to Identify Inhibitors of 5'UTR Stem-Loop Driven Prion Protein mRNA Translation in H4 Neuroglioblastoma Cells. [Related pubchem assays: 1827 (Project Summary), 1813 (Primary HTS)]. Format: functional.
Assay [4] in a line: inhibitors of SNCA 5'UTR-driven reporter translation, confirmation, H4 neuroglioma cells, luminescence (AID 1988). The assay is classed as functional, cell-based.
Assay [5] relates to BJ. Briefly: cells. The assay is classed as functional, cell-based. To be noted: Homo sapiens.
Assay [6] deals with BJ. Briefly: cytotoxicity toward BJ-TERT-LT-ST fibroblasts, dose response, cell-based, RAS-independent, luminescence (AID 1935).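 Further: BJ fibroblasts immortalized with TERT plus LT and ST oncogenes.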 To be noted: Homo sapiens. Format: functional.
Assay [7] can be described thus: cytotoxicity toward DRD oncogenic fibroblasts, dose response, cell-based, non-viral oncogenic, luminescence (AID 1934). Format: functional. To be noted: Homo sapiens.
In assay [8] the test system is BJ. Briefly: cytotoxicity toward Ras-transformed BJeLR fibroblasts, dose response, cell-based, alamar blue fluorescence, cherrypicked samples (AID 2631).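 Further: confirmatory dose-response assay in RAS-dependent BJ fibroblasts engineered with TERT, LT and ST, with cytotoxicity read by fluorescence.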 The assay is classed as functional. To be noted: Homo sapiens.
Assay [9] can be described thus: inhibitors of intracellular T. cruzi replication, confirmation, NIH3T3 host cells, beta-gal luminescence (AID 2044).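 Further: intracellular parasites grown in NIH/3T3 mouse fibroblasts as host cells; luminescent beta-galactosidase reporter signal from transgenic T. cruzi replicating inside host cells; inhibitors lower the luminescence signal.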 Format: functional, cell-based.
The nature of assay [10]: cytotoxicity toward NIH3T3 fibroblasts, dose response, counter-screen, cell-based, ATP luminescence, mouse fibroblasts (AID 2010).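 Further: cells exposed to compound for about 90 hours before reading.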 Format: functional. For orientation: The purpose of a counterscreen is to sort out artefacts and off-target activity.
The target of assay [11] is Beta-2 adrenergic receptor (Homo sapiens, UniProt P07550). Briefly: beta2AR agonists driving receptor internalization, dose response, cell-based, FAP fluorogen, flow cytometry, cherry pick 1 (AID 588763). The assay is classed as functional. (In general: Flow cytometry measures light scatter and fluorescence of single cells or particles in a stream.)
Chain of Beta-2 adrenergic receptor (P07550 whole entry, the tested form may be a part): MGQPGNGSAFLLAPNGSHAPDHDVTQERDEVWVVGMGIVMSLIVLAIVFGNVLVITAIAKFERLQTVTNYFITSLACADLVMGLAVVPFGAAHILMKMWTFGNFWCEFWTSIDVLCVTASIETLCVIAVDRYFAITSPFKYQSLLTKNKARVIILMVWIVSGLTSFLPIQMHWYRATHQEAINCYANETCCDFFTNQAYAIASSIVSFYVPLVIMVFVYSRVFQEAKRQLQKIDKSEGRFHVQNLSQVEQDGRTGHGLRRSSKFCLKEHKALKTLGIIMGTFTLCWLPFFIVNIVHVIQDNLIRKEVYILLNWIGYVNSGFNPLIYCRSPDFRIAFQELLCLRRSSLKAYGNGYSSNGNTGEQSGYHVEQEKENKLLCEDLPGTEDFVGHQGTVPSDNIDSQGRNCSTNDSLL
The next assay concerns CHO. The assay is described as follows: cytotoxicity in TLR9-MyD88 CHO cells, dose response, cytotoxicity control for TLR9-MyD88 binding inhibitor project, cell-based, luminescence (AID 588339).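 Further: CHO cells stably coexpressing TLR9 and MyD88 fusions from primary screen; compound exposure lasted 48 hours before viability readout.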 Format: functional, hamster. Particulars: Cricetulus griseus.
For a further assay, the target named is Beta Lactamase (Pseudomonas aeruginosa, UniProt Q932Y6). The assay is described as follows: beta-lactamase reporter inhibitor potency, dose response, artefact control for TLR9-MyD88 binding inhibitor project, BLA reporter cells, FRET fluorescence (AID 588341).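 Further: cell based assay in CHO-K1 cells stably expressing beta-lactamase.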 The assay is classed as cell-based.
Chain of Beta Lactamase (Q932Y6 whole entry, the tested form may be a part): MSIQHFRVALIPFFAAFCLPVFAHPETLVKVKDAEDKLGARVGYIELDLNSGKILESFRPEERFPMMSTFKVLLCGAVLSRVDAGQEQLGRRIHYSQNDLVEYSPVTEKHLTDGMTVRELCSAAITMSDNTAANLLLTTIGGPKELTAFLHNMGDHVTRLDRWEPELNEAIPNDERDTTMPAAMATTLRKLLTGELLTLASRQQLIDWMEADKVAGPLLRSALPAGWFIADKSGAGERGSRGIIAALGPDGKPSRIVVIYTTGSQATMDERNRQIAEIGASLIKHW
Assay [12] addresses T1, Fatty acid synthase (Homo sapiens, UniProt P49327). Briefly: FAS thioesterase domain inhibitors, dose response, biochemical, endpoint fluorescence intensity, uHTS hits (AID 624327).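 Further: fluorescence from hydrolysis of an O-methyl fluorescein acyl ester substrate by the enzyme.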 Format: functional.
The target of assay [13] is T1, Fatty acid synthase. Briefly: FAS thioesterase domain inhibitors, dose response, biochemical, kinetic fluorescence intensity (AID 624326).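 Further: rate of fluorescence rise from hydrolysis of a fluorogenic O-methyl fluorescein ester substrate.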 Format: functional.
Assay [14] deals with Protein disulfide-isomerase (Homo sapiens, UniProt P07237). Briefly: PDI inhibitors, insulin aggregation turbidity, dose response, biochemical, absorbance, cherry-picked samples (AID 602350). Format: functional.
Chain of Protein disulfide-isomerase (P07237 whole entry): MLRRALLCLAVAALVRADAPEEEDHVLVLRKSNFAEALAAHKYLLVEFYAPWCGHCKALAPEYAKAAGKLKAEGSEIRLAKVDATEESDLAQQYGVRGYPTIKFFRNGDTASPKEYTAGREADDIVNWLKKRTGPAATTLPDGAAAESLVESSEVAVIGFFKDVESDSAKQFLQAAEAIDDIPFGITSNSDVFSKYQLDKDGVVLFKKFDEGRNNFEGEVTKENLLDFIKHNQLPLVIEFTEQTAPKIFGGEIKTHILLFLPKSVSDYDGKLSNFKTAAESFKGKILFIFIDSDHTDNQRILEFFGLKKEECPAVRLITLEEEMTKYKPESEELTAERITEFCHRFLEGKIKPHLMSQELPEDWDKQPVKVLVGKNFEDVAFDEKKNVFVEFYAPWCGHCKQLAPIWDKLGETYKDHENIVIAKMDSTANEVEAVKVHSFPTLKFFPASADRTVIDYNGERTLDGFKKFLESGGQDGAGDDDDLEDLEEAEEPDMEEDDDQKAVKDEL
Assay [15] can be described thus: cells. Format: functional, cell-based.
A short description of assay [16]: cells. Format: functional, cell-based. This is another data set of the same source.
In a further assay the target is Trypsin (Sus scrofa, UniProt P00761). The assay is described as follows: porcine trypsin inhibitors, dose response, selectivity assay for Rce1 protease inhibitor project, biochemical, quenched peptide fluorescence, cherry-pick (AID 488789).
Chain of Trypsin (P00761 whole entry): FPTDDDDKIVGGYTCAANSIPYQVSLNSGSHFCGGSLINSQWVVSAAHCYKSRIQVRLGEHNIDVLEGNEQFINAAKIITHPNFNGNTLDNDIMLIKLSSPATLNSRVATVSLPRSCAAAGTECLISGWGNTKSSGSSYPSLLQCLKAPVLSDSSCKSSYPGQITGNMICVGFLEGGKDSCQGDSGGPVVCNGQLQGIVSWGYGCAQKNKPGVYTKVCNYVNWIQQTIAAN
Assay [17] deals with T2, CAAX prenyl protease 2 (Saccharomyces cerevisiae S288c, UniProt Q03530).
T2 sequence (Q03530 whole entry): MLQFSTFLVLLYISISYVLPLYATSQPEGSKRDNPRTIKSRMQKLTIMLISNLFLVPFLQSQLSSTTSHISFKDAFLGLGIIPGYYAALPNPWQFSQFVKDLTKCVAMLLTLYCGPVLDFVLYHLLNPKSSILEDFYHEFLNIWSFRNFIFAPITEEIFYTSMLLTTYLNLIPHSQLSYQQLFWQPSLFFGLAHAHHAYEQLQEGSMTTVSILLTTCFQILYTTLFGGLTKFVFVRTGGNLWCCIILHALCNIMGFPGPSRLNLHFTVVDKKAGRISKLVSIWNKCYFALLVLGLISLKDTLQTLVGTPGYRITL
The assay is classed as biochemical.

Assay [18] addresses T3, Replicative DNA helicase DnaB (Mycobacterium tuberculosis, UniProt P9WMR3).
T3 sequence (P9WMR3 whole entry): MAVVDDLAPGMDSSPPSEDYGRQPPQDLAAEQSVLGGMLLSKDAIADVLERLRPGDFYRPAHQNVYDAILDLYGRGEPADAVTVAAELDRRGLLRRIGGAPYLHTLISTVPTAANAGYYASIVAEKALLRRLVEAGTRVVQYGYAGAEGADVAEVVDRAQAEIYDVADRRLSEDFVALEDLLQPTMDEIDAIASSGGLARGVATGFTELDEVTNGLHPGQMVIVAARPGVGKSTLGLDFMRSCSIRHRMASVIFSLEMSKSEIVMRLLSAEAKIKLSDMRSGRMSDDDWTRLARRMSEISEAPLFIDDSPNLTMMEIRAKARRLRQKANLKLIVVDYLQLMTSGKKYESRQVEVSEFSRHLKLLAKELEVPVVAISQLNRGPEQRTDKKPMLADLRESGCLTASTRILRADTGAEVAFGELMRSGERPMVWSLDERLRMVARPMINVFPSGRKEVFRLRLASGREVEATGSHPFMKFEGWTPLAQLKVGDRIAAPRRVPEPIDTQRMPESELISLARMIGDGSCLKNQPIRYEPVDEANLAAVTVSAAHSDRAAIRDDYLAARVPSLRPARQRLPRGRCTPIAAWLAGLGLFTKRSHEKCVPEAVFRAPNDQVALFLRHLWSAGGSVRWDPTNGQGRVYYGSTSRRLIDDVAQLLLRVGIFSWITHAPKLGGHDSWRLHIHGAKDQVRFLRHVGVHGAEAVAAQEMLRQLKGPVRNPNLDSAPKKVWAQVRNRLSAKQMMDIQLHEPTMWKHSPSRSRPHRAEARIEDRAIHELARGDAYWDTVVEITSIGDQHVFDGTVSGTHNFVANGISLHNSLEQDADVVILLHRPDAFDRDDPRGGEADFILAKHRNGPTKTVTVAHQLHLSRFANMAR
The assay is described as follows: DnaB intein splicing inhibitors, dose response, biochemical, cell-free fluorescence (AID 449749). The assay is classed as functional.

The target in the next assay is T4, Protein RecA (Mycobacterium tuberculosis, UniProt P9WHJ3).
T4 sequence (P9WHJ3 whole entry): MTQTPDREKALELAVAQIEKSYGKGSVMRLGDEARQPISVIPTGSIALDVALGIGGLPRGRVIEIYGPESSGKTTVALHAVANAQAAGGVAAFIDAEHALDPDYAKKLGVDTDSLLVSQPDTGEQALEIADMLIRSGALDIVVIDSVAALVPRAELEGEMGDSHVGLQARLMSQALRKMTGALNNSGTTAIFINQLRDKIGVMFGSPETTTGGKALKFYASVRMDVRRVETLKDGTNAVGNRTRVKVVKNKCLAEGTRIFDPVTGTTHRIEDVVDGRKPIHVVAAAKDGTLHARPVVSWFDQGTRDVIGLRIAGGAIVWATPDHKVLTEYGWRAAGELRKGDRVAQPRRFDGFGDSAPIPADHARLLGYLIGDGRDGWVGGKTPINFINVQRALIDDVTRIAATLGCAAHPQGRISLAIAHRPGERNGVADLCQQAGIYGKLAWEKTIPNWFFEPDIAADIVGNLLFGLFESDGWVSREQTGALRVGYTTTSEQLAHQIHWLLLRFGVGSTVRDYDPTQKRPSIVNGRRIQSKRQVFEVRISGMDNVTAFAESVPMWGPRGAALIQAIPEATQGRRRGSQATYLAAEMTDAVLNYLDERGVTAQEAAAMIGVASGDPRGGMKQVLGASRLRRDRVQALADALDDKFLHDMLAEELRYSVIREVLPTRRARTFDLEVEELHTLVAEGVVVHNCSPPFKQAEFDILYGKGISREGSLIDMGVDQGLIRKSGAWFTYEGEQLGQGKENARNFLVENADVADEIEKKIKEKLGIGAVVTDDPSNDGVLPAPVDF
The assay is described as follows: Fluorescence Cell-Free Homogeneous Dose Retest to Identify Inhibitors of RecA-Intein Splicing Activity. [Related pubchem assays (depositor defined):AID2097, AID2223, AID489010, AID492950]. Format: functional.

Assay [19] deals with T5, CAAX prenyl protease 2 (Homo sapiens, UniProt Q9Y256).
T5 sequence (Q9Y256 whole entry): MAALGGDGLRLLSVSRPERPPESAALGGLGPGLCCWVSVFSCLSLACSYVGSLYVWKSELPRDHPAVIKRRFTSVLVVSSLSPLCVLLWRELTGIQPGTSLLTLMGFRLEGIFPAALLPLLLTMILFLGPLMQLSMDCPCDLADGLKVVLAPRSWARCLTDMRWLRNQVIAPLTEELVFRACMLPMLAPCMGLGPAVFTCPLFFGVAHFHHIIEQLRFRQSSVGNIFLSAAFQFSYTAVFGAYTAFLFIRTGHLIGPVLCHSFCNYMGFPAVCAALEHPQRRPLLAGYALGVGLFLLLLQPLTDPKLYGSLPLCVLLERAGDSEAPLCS
Briefly: human Rce1 protease inhibitors, dose response, biochemical, yeast membranes, quenched-peptide fluorescence, cherry-pick (AID 588849).

A short description of assay [20]: Shn3 3'UTR reporter inhibitors, dose response, cell-based, Clone20 osteoblasts, firefly luciferase, cherry-picked (AID 624132).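 Further: firefly luciferase luminescence from reporter carrying the Shn3 3'UTR in osteoblasts.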 Format: functional.
Assay [21] can be described thus: HepG2 cell cytotoxicity, dose response, cytotoxicity control for Shn3 inhibitor project, CellTiter-Glo, cherry-picked (AID 624134). Format: functional, cell-based.
Assay [22] is described as follows: control 3'UTR Renilla luciferase suppression, dose response, counter-screen for Shn3 inhibitor project, cell-based, Clone20-Shn3RL, cherry-picked (AID 624133). Format: functional.

The source made the active and inactive calls.

T1 sequence (P49327 whole entry, the tested form may be a part): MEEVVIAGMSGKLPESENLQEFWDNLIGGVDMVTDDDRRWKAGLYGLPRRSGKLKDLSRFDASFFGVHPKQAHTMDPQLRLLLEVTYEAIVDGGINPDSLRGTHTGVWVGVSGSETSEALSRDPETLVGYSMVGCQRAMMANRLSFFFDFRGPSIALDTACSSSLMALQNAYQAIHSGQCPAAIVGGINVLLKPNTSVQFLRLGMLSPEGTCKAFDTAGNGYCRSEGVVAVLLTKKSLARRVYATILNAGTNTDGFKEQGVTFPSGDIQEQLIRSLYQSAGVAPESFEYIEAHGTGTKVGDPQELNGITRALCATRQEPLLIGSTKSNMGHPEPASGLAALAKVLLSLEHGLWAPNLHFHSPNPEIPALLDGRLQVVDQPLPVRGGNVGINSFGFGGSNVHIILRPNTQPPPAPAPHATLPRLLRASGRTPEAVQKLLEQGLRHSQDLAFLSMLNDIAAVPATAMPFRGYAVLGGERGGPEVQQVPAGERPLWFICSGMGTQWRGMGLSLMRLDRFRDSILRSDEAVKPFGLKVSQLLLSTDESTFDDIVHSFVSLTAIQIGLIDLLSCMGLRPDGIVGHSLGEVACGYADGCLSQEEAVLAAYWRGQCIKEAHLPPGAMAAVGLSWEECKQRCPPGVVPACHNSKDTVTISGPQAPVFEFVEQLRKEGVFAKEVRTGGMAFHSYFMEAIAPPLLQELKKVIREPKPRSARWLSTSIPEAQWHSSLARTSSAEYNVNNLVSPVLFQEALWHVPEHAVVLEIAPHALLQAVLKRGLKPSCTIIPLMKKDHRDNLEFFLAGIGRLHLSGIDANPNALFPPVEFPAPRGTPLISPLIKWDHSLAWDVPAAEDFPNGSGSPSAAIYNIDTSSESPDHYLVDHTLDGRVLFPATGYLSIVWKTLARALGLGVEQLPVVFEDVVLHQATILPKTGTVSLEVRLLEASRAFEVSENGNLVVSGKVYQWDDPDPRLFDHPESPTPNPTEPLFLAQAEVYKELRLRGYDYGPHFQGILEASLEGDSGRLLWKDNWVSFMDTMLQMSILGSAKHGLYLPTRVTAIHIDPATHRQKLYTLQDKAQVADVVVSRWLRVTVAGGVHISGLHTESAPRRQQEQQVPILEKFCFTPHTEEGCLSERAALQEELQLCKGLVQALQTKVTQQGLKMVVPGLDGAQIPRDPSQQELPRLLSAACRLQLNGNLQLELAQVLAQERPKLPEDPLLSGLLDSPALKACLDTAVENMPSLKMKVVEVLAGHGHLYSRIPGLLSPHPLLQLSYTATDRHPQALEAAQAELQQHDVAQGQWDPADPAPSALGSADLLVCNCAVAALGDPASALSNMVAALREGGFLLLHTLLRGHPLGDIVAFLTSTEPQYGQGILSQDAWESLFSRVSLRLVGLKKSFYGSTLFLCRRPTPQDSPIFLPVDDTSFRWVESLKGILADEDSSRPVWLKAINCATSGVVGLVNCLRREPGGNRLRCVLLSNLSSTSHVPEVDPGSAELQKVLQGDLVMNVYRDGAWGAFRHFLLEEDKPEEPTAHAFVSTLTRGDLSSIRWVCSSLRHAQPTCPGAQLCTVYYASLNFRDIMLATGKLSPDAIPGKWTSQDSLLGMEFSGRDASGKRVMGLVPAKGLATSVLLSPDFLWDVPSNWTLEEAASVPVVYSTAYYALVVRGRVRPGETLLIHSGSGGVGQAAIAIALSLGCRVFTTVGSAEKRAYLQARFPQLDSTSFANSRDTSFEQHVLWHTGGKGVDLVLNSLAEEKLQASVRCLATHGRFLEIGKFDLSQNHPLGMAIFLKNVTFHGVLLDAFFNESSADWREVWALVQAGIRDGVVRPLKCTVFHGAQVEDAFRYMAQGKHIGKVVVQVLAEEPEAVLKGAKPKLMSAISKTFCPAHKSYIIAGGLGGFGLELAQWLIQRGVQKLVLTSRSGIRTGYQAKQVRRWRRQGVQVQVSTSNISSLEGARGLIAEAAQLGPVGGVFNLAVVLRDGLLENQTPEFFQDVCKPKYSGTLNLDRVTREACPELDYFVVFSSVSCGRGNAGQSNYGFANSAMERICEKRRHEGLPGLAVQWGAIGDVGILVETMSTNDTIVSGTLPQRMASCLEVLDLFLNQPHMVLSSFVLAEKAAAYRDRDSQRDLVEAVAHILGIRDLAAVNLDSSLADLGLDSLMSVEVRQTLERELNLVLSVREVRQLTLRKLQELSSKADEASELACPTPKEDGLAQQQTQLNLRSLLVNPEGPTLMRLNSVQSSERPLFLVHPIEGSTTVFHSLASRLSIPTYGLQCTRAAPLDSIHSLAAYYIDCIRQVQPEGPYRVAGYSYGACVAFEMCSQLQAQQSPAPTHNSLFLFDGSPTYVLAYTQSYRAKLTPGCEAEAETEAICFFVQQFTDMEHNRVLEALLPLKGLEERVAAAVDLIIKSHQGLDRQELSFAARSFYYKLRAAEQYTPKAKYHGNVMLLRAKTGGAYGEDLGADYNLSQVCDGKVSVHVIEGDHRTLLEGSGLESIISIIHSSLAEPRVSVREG

`COc1cccc(CSc2nc3ccccc3cc2C=O)c1`: the EC50 – broadly, the concentration that produces a half-maximal response – is 16.6 µM (active) in [1]; 0.944 µM (inconclusive) with BJ [2]; 17.7 µM (active) in assay [3]; 13.7 µM (active) in assay [4]; 21.6 µM (active) in the assay on BJ [5]; 1.17 µM (active) in the assay with BJ [6]. For the same compound, the concentration giving a half-maximal response (EC50) is 1.27 µM (active) in [7] and 0.301 µM (active) in the assay on BJ [8].
Turning to `CCN(c1ccc2c(c1)OCO2)S(=O)(=O)c1cc(Br)cc2c1N(C(C)=O)CC2`, the results for the half-maximal effective concentration (EC50) in [9], in assay [10] and in [11] were 0.891 µM (active), > 60 µM (not active) and 10.5 µM (inactive), respectively.
Consider `Cc1ccc(C(=O)N/C(=C/c2ccc(-c3ccc([N+](=O)[O-])cc3)o2)C(=O)NCCCN(C)C)cc1`, for which the concentration for a half-maximal effect (EC50) in assay [1], in assay [3] and in [4] was > 120 µM (not active) each time. Moreover, the IC50 (in general, the concentration at which inhibition is half-maximal) was 22.9 µM (inactive) in the assay with CHO, 6.55 µM (active) at Beta Lactamase, 13.8 µM (active) on Fatty acid synthase [12] and 5.71 µM (active) on Fatty acid synthase [13].
On to `CCN1C(=O)C2C(c3ccccc3F)NC(Cc3ccc(O)cc3)(C(=O)OC)C2C1=O` (stereo not given), for which the concentration at half-maximal activity (AC50) (commonly the midpoint of the concentration-response curve, whichever way the signal moves) in assay [14] is 10.2 µM (active).
Take `CCN1CC2(COC(=O)c3ccccc3N)CCC(OC)C34C5CC6C(OC)CC(O)(C5C6OC)C(O)(C(OC)C23)C14` (stereo not given): the concentration at half-maximal activity (AC50) in [14] was 19.5 µM (active).
Take `COc1ccccc1-c1cc(C(F)(F)F)nc(S(=O)(=O)CCCC(=O)NCc2ccc(F)cc2)n1`: the 50% effective concentration (EC50) in “cells [15]” was > 350 µM (not active); in “cells [16]”, > 350 µM (not active); at Protein RecA, 3.61 µM (active). Also, the concentration at half-maximal activity (AC50) on Trypsin is 2.3 µM (active); on CAAX prenyl protease 2 [17] it was 7.9 µM (active); in [18] it was 5.72 µM (active); on CAAX prenyl protease 2 [19] it was 10.8 µM (active); in assay [20], 4.43 µM (active); in assay [21], > 70 µM (inactive). The AC50 in [22] was 23.6 µM (active).
In the case of `CCC(C)C(=O)OCC1(c2ccc(C)cc2OC(=O)C(C)C)CO1` (stereo not given), the EC50 with BJ [8] was 8.58 µM (active).
As to `O=C(NCc1ccccc1C(F)(F)F)c1cccc2c1C(=O)c1ccc(N3CCC(N4CCCCC4)CC3)cc1S2(=O)=O`, the IC50 in the assay on CHO is 8.71 µM (active); on Beta Lactamase it was 5.89 µM (active). Further, the AC50 is 21.2 µM (active) in assay [20] and 9.77 µM (active) in assay [21].
